Assay [1] has as its system C-33-A. As to the kind of experiment: Inhibition of cell viability of human C-33-A cells incubated for 72 hrs by Cell Titer-Glo assay. It is filed as functional, cell-based.
Another assay concerns OVCAR-3. The assay is described as follows: Inhibition of cell viability of human OVCAR-3 cells incubated for 72 hrs by Cell Titer-Glo assay. To be noted: OVCAR-3, 72 h. The assay is classed as functional, cell-based. A general note: In ATP-based viability assays light output follows the ATP content of the culture.
Another assay relates to A-427. As to the kind of experiment: Inhibition of cell viability of human A-427 cells incubated for 72 hrs by Cell Titer-Glo assay. Particulars: A-427, 72 h. The assay is classed as functional, cell-based.
The next assay concerns NCI-H446. As to the kind of experiment: Inhibition of cell viability of human NCI-H446 cells incubated for 72 hrs by Cell Titer-Glo assay. Particulars: NCI-H446, 72 h.
A further assay concerns WiDr. The assay is described as follows: Inhibition of cell viability of human WiDr cells incubated for 72 hrs by Cell Titer-Glo assay. The assay is classed as functional, cell-based.
The target in another assay is Wee1-like protein kinase (Homo sapiens, UniProt P30291). As to the kind of experiment: Inhibition of Wee-1 (unknown origin) using Poly-Lys Tyr as substrate incubated for 60 mins in presence of ATP by ADP-Glo Kinase assay.
Wee1-like protein kinase, sequence (P30291 whole entry): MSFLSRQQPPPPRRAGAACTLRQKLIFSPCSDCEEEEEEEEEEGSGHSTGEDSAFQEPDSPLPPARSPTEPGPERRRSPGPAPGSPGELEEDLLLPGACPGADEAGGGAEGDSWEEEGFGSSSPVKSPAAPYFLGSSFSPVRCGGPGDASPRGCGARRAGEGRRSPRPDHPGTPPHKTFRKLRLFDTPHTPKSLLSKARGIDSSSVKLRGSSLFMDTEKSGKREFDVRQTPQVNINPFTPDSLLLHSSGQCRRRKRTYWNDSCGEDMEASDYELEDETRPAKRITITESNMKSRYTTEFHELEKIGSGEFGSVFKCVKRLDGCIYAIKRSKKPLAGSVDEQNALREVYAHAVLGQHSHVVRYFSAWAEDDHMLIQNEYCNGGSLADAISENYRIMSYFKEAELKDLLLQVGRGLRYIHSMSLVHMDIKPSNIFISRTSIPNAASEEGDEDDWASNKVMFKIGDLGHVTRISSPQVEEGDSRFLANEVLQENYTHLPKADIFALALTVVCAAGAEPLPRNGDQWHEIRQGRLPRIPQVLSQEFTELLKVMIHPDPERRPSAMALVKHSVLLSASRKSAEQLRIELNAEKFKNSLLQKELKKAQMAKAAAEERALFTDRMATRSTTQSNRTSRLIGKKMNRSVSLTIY
In assay [2] the test system is C-33-A. As to the kind of experiment: Inhibition of cell viability of human C-33-A cells incubated for 72 hrs by Cell Titer-Glo assay relative to control. It is filed as functional.

pIC50: −log10 of the molar value.

As usually defined, the pIC50 is the IC50 on a negative log10 scale, so that one unit is a factor of ten. Take `COc1cc(Nc2ncc(-c3cncs3)c(-c3cnc(N4CC[C@H](O)C4)s3)n2)ccc1N1CCN(C)CC1`: the pIC50 in the assay with C-33-A [1] was 7.00; with OVCAR-3, 6.64; with A-427 it was 6.82; with NCI-H446, 6.38; in the assay on WiDr, 6.27; on Wee1-like protein kinase, 8.70.
Regarding `COc1cc(Nc2ncc(-c3cncs3)c(-c3cnc(N4CC(O)C4)s3)n2)ccc1N1CCN(C)CC1`, the pIC50 was 6.98 in the assay on C-33-A [1]; 6.60 in the assay on OVCAR-3; 6.79 with A-427; 6.50 in the assay on NCI-H446; 6.38 in the assay on WiDr; 8.43 on Wee1-like protein kinase.
In the case of `CN1CCN(c2ccc(Nc3ncc(-c4cncs4)c(-c4cc5ccccc5o4)n3)cc2)CC1`, the pIC50 with C-33-A [1] was 6.34; in the assay on OVCAR-3, 6.13; in the assay on A-427, 6.33; with NCI-H446, 5.94; in the assay on WiDr, 6.07; at Wee1-like protein kinase, 8.64.
`COc1cc(Nc2ncc(-c3cncs3)c(-c3cc4ccccc4o3)n2)ccc1N1CCN(C)CC1`: the pIC50 in the assay with NCI-H446 is 5.69; on Wee1-like protein kinase it was 8.72.
With `CC1(N)CCN(c2ccc(Nc3ncc(-c4cnco4)c(-c4cc(N5CC[C@H](N)C5)ns4)n3)cc2)CC1`, the results for the pIC50 with NCI-H446 and on Wee1-like protein kinase were under 5.00 and 7.33, respectively.
With `CN1CCN(c2ccc(Nc3ncc(-c4cnco4)c(-c4cnc(N5CC[C@H](F)C5)s4)n3)cc2)CC1`, the pIC50 in the assay on C-33-A [1] was 6.89; with OVCAR-3 it was 6.38; in the assay on A-427, 6.68; in the assay on NCI-H446, 6.25; in the assay with WiDr, 6.37; on Wee1-like protein kinase it was 8.44.
For the molecule `CC1(N)CCN(c2ccc(Nc3ncc(-c4cnco4)c(-c4cnc(N5CC(O)C5)s4)n3)cc2)CC1`, the pIC50 on Wee1-like protein kinase was 7.47.
On to `CC1(N)CCN(c2ccc(Nc3ncc(-c4cnco4)c(-c4cc5ccc(CO)cc5o4)n3)cc2)CC1`, for which the pIC50 on Wee1-like protein kinase is 7.87.
For `CN1CCN(c2ccc(Nc3ncc(-c4cncs4)c(-c4cnc(N5CC[C@H](O)C5)s4)n3)cc2)CC1`, the pIC50 in the assay with C-33-A [1] is 6.78; in the assay with OVCAR-3, 6.37; with A-427 it was 6.44; with NCI-H446, 6.27; with WiDr, 5.96; at Wee1-like protein kinase, 8.38.
As for `COc1cc(Nc2ncc(-c3cncs3)c(-c3cnc(N4CC[C@H](F)C4)s3)n2)ccc1N1CCN(C)CC1`, the pIC50 in the assay on C-33-A [1] is 7.64; with OVCAR-3 it was 7.06; in the assay with A-427, 7.46; with NCI-H446, 7.03; in the assay with WiDr, 7.07; on Wee1-like protein kinase it was 8.70.
For `C=CCn1c(=O)c2cnc(Nc3ccc(N4CCN(C)CC4)cc3)nc2n1-c1ccc2c(n1)[C@@](O)(CC)CC2` [AZENOSERTIB], the pIC50 was 6.42 with C-33-A [1]; 6.61 in the assay with OVCAR-3; 6.43 in the assay on A-427; 6.60 with NCI-H446; 6.59 in the assay with WiDr; 8.89 at Wee1-like protein kinase.
For `CC1(N)CCN(c2ccc(Nc3ncc(-c4cnco4)c(-c4snc(N5CCC(N)C5)c4F)n3)cc2)CC1` (stereo not given), the pIC50 on Wee1-like protein kinase is 7.33.
`COc1cc(Nc2ncc(-c3cnco3)c(-c3cnc(N4CC[C@H](O)C4)s3)n2)ccc1N1CCN(C)CC1`: the pIC50 in the assay with C-33-A [1] was 6.39; with OVCAR-3, 5.74; in the assay on A-427, 6.23; in the assay on NCI-H446, 5.85; in the assay with WiDr, 5.83; on Wee1-like protein kinase, 7.65.
For the molecule `CN1CCN(c2ccc(Nc3ncc(-c4cncs4)c(-c4cnc(N5CC(O)C5)s4)n3)cc2)CC1`, the pIC50 in the assay on C-33-A [1] is 6.56; in the assay on OVCAR-3, 6.45; in the assay on A-427, 6.43; in the assay on NCI-H446, 6.21; in the assay with WiDr, 5.99; at Wee1-like protein kinase, 8.44.
As to `COc1cc(Nc2ncc(-c3cnco3)c(-c3cnc(N4CC[C@H](F)C4)s3)n2)ccc1N1CCN(C)CC1`, the pIC50 with C-33-A [1] was 7.20; with OVCAR-3, 6.67; in the assay with A-427, 6.94; in the assay with NCI-H446 it was 6.52; in the assay on WiDr, 6.73; on Wee1-like protein kinase, 8.60.
`Cc1cc(-c2ccnc(-c3nc(Nc4ccc(N5CCC(C)(N)CC5)cc4)ncc3-c3cnco3)c2)n[nH]1`: the pIC50 at Wee1-like protein kinase is 6.05.
In the case of `CN1CCN(c2ccc(Nc3ncc(-c4cnco4)c(-c4cnc(N5CC[C@H](O)C5)s4)n3)cc2)CC1`, the pIC50 in the assay on C-33-A [1] is 6.28; with OVCAR-3, 5.68; in the assay with A-427, 6.25; in the assay on NCI-H446, 5.78; in the assay with WiDr, 5.66; at Wee1-like protein kinase, 7.68.
As to `CC1(N)CCN(c2ccc(Nc3ncc(-c4cnco4)c(-c4cccc(C(C)(C)O)c4)n3)cc2)CC1`, the pIC50 on Wee1-like protein kinase is 6.80.
Regarding `CC1(N)CCN(c2ccc(Nc3ncc(-c4cnco4)c(-c4cc5ccccc5o4)n3)cc2)CC1`, the pIC50 in the assay on OVCAR-3 is 5.82; with A-427, 5.84; in the assay on NCI-H446, 6.15; at Wee1-like protein kinase, 7.87.
For the molecule `CN1CCN(c2ccc(Nc3ncc(-c4cncs4)c(-c4cnc(N5CC[C@H](F)C5)s4)n3)cc2)CC1`, the pIC50 with OVCAR-3 is 6.79; in the assay with A-427, 7.01; in the assay with NCI-H446, 6.82; with WiDr it was 6.69; on Wee1-like protein kinase, 8.74. Also, the “inhibition (INH)” value in the assay on C-33-A [2] is listed as 43.6%.

The values above are taken from ChEMBL document CHEMBL6127101, “Wee1 inhibitor optimization through deep-learning-driven decision making” (Eur J Med Chem, 2024).
